According to PubChem BioAssay (NCI):
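Grown in 96-well plates, cells were treated for 48 hours with each compound at five concentrations. Insufficient inhibition: endpoint recorded as highest concentration tested. At the TGI there is no net growth.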

How the values were obtained:
Test in all cases: growth of human tumour cells (NCI), 48 h
MDA-MB-435 = test system: MDA-MB-435
HOP-62 NSCLC = test system: HOP-62 NSCLC
SNB-75 CNS = test system: SNB-75 CNS
HT29 colon = test system: HT29 colon
HCC-2998 colon = test system: HCC-2998 colon
COLO 205 colon = test system: COLO 205 colon
IGROV1 ovarian = test system: IGROV1 ovarian
RXF 393 renal = test system: RXF 393 renal
786-0 renal = test system: 786-0 renal
SF-268 CNS = test system: SF-268 CNS
UACC-62 melanoma = test system: UACC-62 melanoma
SK-MEL-5 melanoma = test system: SK-MEL-5 melanoma
BT-549 breast = test system: BT-549 breast
U251 CNS = test system: U251 CNS
HCT-116 colon = test system: HCT-116 colon
SNB-19 CNS = test system: SNB-19 CNS
SK-MEL-28 melanoma = test system: SK-MEL-28 melanoma
MALME-3M melanoma = test system: MALME-3M melanoma

Structure (SMILES)	TGI (MDA-MB-435) [µM]	TGI (HOP-62 NSCLC) [µM]	TGI (SNB-75 CNS) [µM]	TGI (HT29 colon) [µM]	TGI (HCC-2998 colon) [µM]	TGI (COLO 205 colon) [µM]	TGI (IGROV1 ovarian) [µM]	TGI (RXF 393 renal) [µM]	TGI (786-0 renal) [µM]	TGI (SF-268 CNS) [µM]	TGI (UACC-62 melanoma) [µM]	TGI (SK-MEL-5 melanoma) [µM]	TGI (BT-549 breast) [µM]	TGI (U251 CNS) [µM]	TGI (HCT-116 colon) [µM]	TGI (SNB-19 CNS) [µM]	TGI (SK-MEL-28 melanoma) [µM]	TGI (MALME-3M melanoma) [µM]
Cc1ccnc2nc3[nH]c4ccccc4c3cc12	> 100	> 100	85.8	> 100	> 100	> 100	> 100	> 100	83.7	> 100	> 100	> 100	> 100	> 100	> 100	–	–	–
O=c1[nH]c2ccsc2c(=O)n1COCc1ccccc1	> 100	> 100	> 100	> 100	> 100	> 100	> 100	> 100	> 100	> 100	–	> 100	> 100	> 100	> 100	> 100	> 100	> 100
O=S1(=O)OCCCOS(=O)(=O)C1Br	> 100	> 100	> 100	> 100	> 100	> 100	–	> 100	> 100	> 100	> 100	> 100	> 100	> 100	> 100	> 100	> 100	> 100
CCn1c(SCC(=O)NNC(=S)Nc2ccc(F)cc2)nc2ccccc2c1=O	> 100	> 100	> 100	> 100	> 100	> 100	> 100	> 100	> 100	> 100	> 100	> 100	> 100	> 100	> 100	> 100	> 100	> 100
CC(Oc1ccc(Cl)cc1Cl)C(=O)NN1C(=O)CSC1c1ccc(Cl)cc1 (stereo not drawn)	> 100	> 100	72.7	> 100	> 100	> 100	> 100	83.4	> 100	> 100	> 100	> 100	> 100	> 100	> 100	> 100	> 100	–
CCn1c(=O)c2c3ccc(O)cc3oc2c2ccc(O)cc21	> 100	> 100	> 100	> 100	> 100	> 100	> 100	> 100	> 100	> 100	> 100	> 100	> 100	> 100	74	> 100	> 100	> 100
N#CC(C#N)=C1CCCCc2ccc([N+](=O)[O-])cc21	> 100	> 100	> 100	> 100	> 100	> 100	> 100	> 100	33	> 100	> 100	> 100	> 100	> 100	54.8	> 100	> 100	> 100
CN1CCC/C1=C1\C(=O)c2cccn2C1=O	> 100	> 100	> 100	> 100	> 100	> 100	> 100	> 100	> 100	> 100	> 100	> 100	> 100	> 100	> 100	> 100	> 100	> 100
CCCCc1ccc(N2C(=O)c3cccnc3S2(=O)=O)cc1	> 100	> 100	> 100	> 100	> 100	> 100	> 100	> 100	> 100	> 100	> 100	–	> 100	> 100	> 100	> 100	> 100	> 100
COC(=O)c1cc(C#N)[nH]c1-c1cccs1	> 100	> 100	> 100	–	> 100	> 100	–	86.1	> 100	> 100	> 100	–	> 100	> 100	> 100	> 100	> 100	–
COc1c(O)cc2c(c1O)C1O[C@H](CO)C(O)[C@H](O)[C@H]1OC2=O (stereo partly drawn)	> 100	> 100	> 100	> 100	> 100	> 100	> 100	> 100	> 100	> 100	–	> 100	> 100	> 100	> 100	> 100	> 100	> 100
CCCCCNC1=CC(=O)c2ccccc2C1=O	> 100	43.5	49.4	> 100	> 100	> 100	> 100	47.3	38.9	> 77.1	> 100	77.8	46	34	> 61.7	82.5	> 100	> 95.3
COC(=O)[C@]12CSC[C@H]1C[C@H](c1ccc(N(C)C)cc1)N2	> 100	> 100	> 100	–	> 100	> 100	> 100	> 100	> 100	> 100	> 100	> 100	> 100	> 100	> 100	> 100	> 100	> 100
CC(CCC(=O)O)[C@H]1CCC2[C@H]3C(CC(=O)[C@@]21C)[C@@]1(C)CCC(O)C[C@H]1C[C@@H]3O (stereo partly drawn)	> 100	> 100	> 100	> 100	> 100	> 100	> 100	> 100	> 100	> 100	> 100	–	> 100	> 100	> 100	> 100	> 100	> 100
